Results reported in US5140018A, “1,3,2-benzodithiazole-1-oxide compounds” (Abbott Laboratories, priority 1991, dated 1992).
In brackets after ≈: the same amount, converted by molar mass.

What was measured:
Assay type in all cases: cell-based
[1] = tested on: Candida albicans ATCC 10231; test: In vitro antifungal MIC, Candida albicans ATCC 10231; details: ATCC10231; Candida albicans ATCC 10231; 35°-37° C., 48 hours; read-out: MIC
Method: (§1) The in vitro antifungal activity of the compounds of the present invention against a variety of fungiwas determined as follow: Test medium was prepared by dissolving first 5 g of dextrose and then 6.7 g of Bacto Yeast Nitrogen Base® (commercially available from Difco Laboratories) in 100 mL of distilled water. The solution was filter-sterilized and diluted 1:10 with 0.01M pH 8.0 phosphate buffer solution, and the final pH of the medium adjusted to about pH 7.0 when necessary with either 0.1N hydrochloric acid solution of 0.1N sodium hydroxide solution. […] These concentrated stock solutions were diluted to a concentration of 200 μg/mL (twice the highest concentration desired for testing) with the test medium. Amphotericin B, similarly prepared, was used as a reference antifungal agent.
(§2) The test organisms were then inoculated into test tubes containing approximately 3 to 10 mL of test medium and the test tubes incubated overnight at 37° C. A sample of each overnight culture was placed in a test tube and diluted using the test medium until a reading of 95% transmittance was obtained in a conventional UV/visible spectrophotometer set to 560 nm. The adjusted cultures were then diluted 1:50 with test medium. These diluted cultures served as the inocula for the assays which follow and were used within 15 minutes of preparation.
(§3) Next, 2-fold serial dilutions of each test compound in test medium were prepared in a 96-well microtiter plate using calibrated microdiluters attached to an automatic (hand-held) diluter (available from Dynatech Laboratories).
(§4) Using sterile calibrated droppers or a multi-point dispenser, the diluted inoculum suspension was added to each of the wells in the plate. When inoculation was complete, the microtiter tray was covered with a plastic plate sealer to minimize evaporation. After the plate had been sealed, a hole was made above each well with a sterile 26-gauge syringe needle in order to allow gas exchange. If plate sealers were not available, the microtiter trays were stacked in groups of five or less with an empty tray on top. The microtiter trays were then incubated in a humidified chamber at 35°-37° C. for 48 hours or until growth was visible in the growth control wells.
(§5) The minimum inhibitory concentration (MIC) was defined as the lowest concentration of test compound yielding no growth, a slight haze or sparsely isolated colonies on the inoculum spot as compared to the growth control containing no test compound.

Candida albicans 579A = test: In vitro antifungal MIC, Candida albicans 579A; details: Candida albicans 579A; 35°-37° C., 48 hours; read-out: MIC
Method: as §1, §2, §3, §4, §5

Candida albicans CCH 442 = test: In vitro antifungal MIC, Candida albicans CCH 442; details: CCH442; Candida albicans CCH 442; 35°-37° C., 48 hours; read-out: MIC
Method: as §1, §2, §3, §4, §5

[2] = tested on: Candida albicans ATCC 38247; test: In vitro antifungal MIC, Candida albicans ATCC 38247; details: ATCC38247; Candida albicans ATCC 38247; 35°-37° C., 48 hours; read-out: MIC
Method: as §1, §2, §3, §4, §5

[3] = tested on: Candida albicans ATCC 62376; test: In vitro antifungal MIC, Candida albicans ATCC 62376; details: ATCC62376; Candida albicans ATCC 62376; 35°-37° C., 48 hours; read-out: MIC
Method: as §1, §2, §3, §4, §5

[4] = tested on: Candida tropicalis NRRL-Y-112; test: In vitro antifungal MIC, Candida tropicalis NRRL-Y-112; details: NRRLY112; Candida tropicalis NRRL-Y-112; 35°-37° C., 48 hours; read-out: MIC
Method: as §1, §2, §3, §4, §5

Candida kefyr ATCC 28838 = test: In vitro antifungal MIC, Candida kefyr ATCC 28838; details: Kluyveromyces marxianus, ATCC28838; Candida kefyr ATCC 28838; 35°-37° C., 48 hours; read-out: MIC
Method: as §1, §2, §3, §4, §5

[5] = tested on: Torulopsis glabrata ATCC 15545; test: In vitro antifungal MIC, Torulopsis glabrata ATCC 15545; details: Nakaseomyces glabratus, ATCC15545; Torulopsis glabrata ATCC 15545; 35°-37° C., 48 hours; read-out: MIC
Method: as §1, §2, §3, §4, §5

[6] = tested on: Cryptococcus albidus ATCC 34140; test: In vitro antifungal MIC, Cryptococcus albidus ATCC 34140; details: Naganishia albida, ATCC34140; Cryptococcus albidus ATCC 34140; 35°-37° C., 48 hours; read-out: MIC
Method: as §1, §2, §3, §4, §5

[7] = tested on: Aspergillus niger ATCC 16404; test: In vitro antifungal MIC, Aspergillus niger ATCC 16404; details: ATCC16404; Aspergillus niger ATCC 16404; 35°-37° C., 48 hours; read-out: MIC
Method: as §1, §2, §3, §4, §5

Row | MIC [1] | MIC (Candida albicans 579A) | MIC (Candida albicans CCH 442) | MIC [2] | MIC [3] | MIC [4] | MIC (Candida kefyr ATCC 28838) | MIC [5] | MIC [6] | MIC [7] | SMILES
1 | 1.56 µg/mL (≈ 5.01 µM) | 6.25 µg/mL (≈ 20.1 µM) | 6.25 µg/mL (≈ 20.1 µM) | 6.25 µg/mL (≈ 20.1 µM) | 6.25 µg/mL (≈ 20.1 µM) | 3.12 µg/mL (≈ 10 µM) | 1.56 µg/mL (≈ 5.01 µM) | 3.12 µg/mL (≈ 10 µM) | 12.5 µg/mL (≈ 40.1 µM) | 1.56 µg/mL (≈ 5.01 µM) | CCCCCCCCCCN1Sc2ccccc2[S+]1[O-] (centres unmarked) [Example 8, 2-n-decyl-1,3,2-benzodithiazole-1-oxide]
2 | 0.39 µg/mL (≈ 1.85 µM) | 0.39 µg/mL (≈ 1.85 µM) | 0.78 µg/mL (≈ 3.69 µM) | 6.25 µg/mL (≈ 29.6 µM) | 0.39 µg/mL (≈ 1.85 µM) | 0.78 µg/mL (≈ 3.69 µM) | 0.2 µg/mL (≈ 0.946 µM) | 0.39 µg/mL (≈ 1.85 µM) | 3.12 µg/mL (≈ 14.8 µM) | 0.2 µg/mL (≈ 0.946 µM) | C=CCN1Sc2ccccc2[S+]1[O-] (centres unmarked) [Example 10, 2-allyl-1,3,2-benzodithiazole-1-oxide]
3 | 12.5 µg/mL (≈ 58.1 µM) | 12.5 µg/mL (≈ 58.1 µM) | 12.5 µg/mL (≈ 58.1 µM) | 1.56 µg/mL (≈ 7.25 µM) | 25 µg/mL (≈ 116 µM) | 12.5 µg/mL (≈ 58.1 µM) | 0.78 µg/mL (≈ 3.62 µM) | 6.25 µg/mL (≈ 29 µM) | 1.56 µg/mL (≈ 7.25 µM) | 6.25 µg/mL (≈ 29 µM) | [O-][S+]1c2ccccc2SN1CCO (centres unmarked) [Example 18, 2-(2-hydroxyethyl)-1,3,2-benzodithiazole-1-oxide]

Continued, compound first:

Row | SMILES | MIC [1] | MIC (Candida albicans 579A) | MIC (Candida albicans CCH 442) | MIC [2] | MIC [3] | MIC [4] | MIC (Candida kefyr ATCC 28838) | MIC [5] | MIC [6] | MIC [7]
4 | CCCCCCCCCN1Sc2ccccc2[S+]1[O-] (centres unmarked) [Example 7, 2-n-nonyl-1,3,2-benzodithiazole-1-oxide] | 1.56 µg/mL (≈ 5.24 µM) | 0.78 µg/mL (≈ 2.62 µM) | 1.56 µg/mL (≈ 5.24 µM) | 1.56 µg/mL (≈ 5.24 µM) | 1.56 µg/mL (≈ 5.24 µM) | 1.56 µg/mL (≈ 5.24 µM) | 0.78 µg/mL (≈ 2.62 µM) | 1.56 µg/mL (≈ 5.24 µM) | 6.25 µg/mL (≈ 21 µM) | 0.78 µg/mL (≈ 2.62 µM)
5 | C#CCN1Sc2ccccc2[S+]1[O-] (centres unmarked) [Example 12, 2-propargyl-1,3,2-benzodithiazole-1-oxide] | 0.39 µg/mL (≈ 1.86 µM) | 0.78 µg/mL (≈ 3.73 µM) | 0.78 µg/mL (≈ 3.73 µM) |  | 0.39 µg/mL (≈ 1.86 µM) | 1.56 µg/mL (≈ 7.45 µM) | 0.78 µg/mL (≈ 3.73 µM) | 0.39 µg/mL (≈ 1.86 µM) | 1.56 µg/mL (≈ 7.45 µM) | 1.56 µg/mL (≈ 7.45 µM)
6 | CC(C)(C)N1Sc2ccccc2[S+]1[O-] (centres unmarked) [Example 14, 2-t-butyl-1,3,2-benzodithiazole-1-oxide] | 1.56 µg/mL (≈ 6.86 µM) | 1.56 µg/mL (≈ 6.86 µM) | 1.56 µg/mL (≈ 6.86 µM) | 6.25 µg/mL (≈ 27.5 µM) | 0.78 µg/mL (≈ 3.43 µM) | 3.12 µg/mL (≈ 13.7 µM) | 0.2 µg/mL (≈ 0.88 µM) | 1.56 µg/mL (≈ 6.86 µM) | 3.12 µg/mL (≈ 13.7 µM) | 0.78 µg/mL (≈ 3.43 µM)
7 | CC(C)(C)CCN1Sc2ccccc2[S+]1[O-] (centres unmarked) [Example 15] | 1.56 µg/mL (≈ 6.11 µM) | 3.12 µg/mL (≈ 12.2 µM) | 1.56 µg/mL (≈ 6.11 µM) | 25 µg/mL (≈ 97.9 µM) | 1.56 µg/mL (≈ 6.11 µM) | 3.12 µg/mL (≈ 12.2 µM) | 0.78 µg/mL (≈ 3.05 µM) | 1.56 µg/mL (≈ 6.11 µM) | 12.5 µg/mL (≈ 48.9 µM) | 1.56 µg/mL (≈ 6.11 µM)
8 | CC(C)(C)CC(C)(C)N1Sc2ccccc2[S+]1[O-] (centres unmarked) [Example 16, 2-(1,1,3,3-tetramethylbutyl)-1,3,2-benzodithiazole-1-oxide] | 6.25 µg/mL (≈ 22 µM) | 3.12 µg/mL (≈ 11 µM) | 1.56 µg/mL (≈ 5.5 µM) | 1.56 µg/mL (≈ 5.5 µM) | 6.25 µg/mL (≈ 22 µM) | 12.5 µg/mL (≈ 44.1 µM) | 0.78 µg/mL (≈ 2.75 µM) | 6.25 µg/mL (≈ 22 µM) | 6.25 µg/mL (≈ 22 µM) | 3.12 µg/mL (≈ 11 µM)
9 | CS(=O)(=O)OCCN1Sc2ccccc2[S+]1[O-] (centres unmarked) [Example 19, O-(2-(1,3,2-benzodithiazole-2-yl-1-oxide)ethyl)methanesulfonate] | 50 µg/mL (≈ 170 µM) | 50 µg/mL (≈ 170 µM) | 100 µg/mL (≈ 341 µM) | 100 µg/mL (≈ 341 µM) | 100 µg/mL (≈ 341 µM) | 25 µg/mL (≈ 85.2 µM) | 1.56 µg/mL (≈ 5.32 µM) | 6.25 µg/mL (≈ 21.3 µM) | 12.5 µg/mL (≈ 42.6 µM) | 12.5 µg/mL (≈ 42.6 µM)
